Experimental data published in PMC4951600 (Iranian Journal of Basic Medical Sciences, 2016).

Target: mitochondrial ATP synthase (DNP-stimulated Mg2+-ATPase), rat heart mitochondria (Rattus norvegicus, UniProt P10719+P15999)
Assay: phosphate release from ATP
Format: biochemical

Chain of mitochondrial ATP synthase (DNP-stimulated Mg2+-ATPase), rat heart mitochondria (P10719 47-529): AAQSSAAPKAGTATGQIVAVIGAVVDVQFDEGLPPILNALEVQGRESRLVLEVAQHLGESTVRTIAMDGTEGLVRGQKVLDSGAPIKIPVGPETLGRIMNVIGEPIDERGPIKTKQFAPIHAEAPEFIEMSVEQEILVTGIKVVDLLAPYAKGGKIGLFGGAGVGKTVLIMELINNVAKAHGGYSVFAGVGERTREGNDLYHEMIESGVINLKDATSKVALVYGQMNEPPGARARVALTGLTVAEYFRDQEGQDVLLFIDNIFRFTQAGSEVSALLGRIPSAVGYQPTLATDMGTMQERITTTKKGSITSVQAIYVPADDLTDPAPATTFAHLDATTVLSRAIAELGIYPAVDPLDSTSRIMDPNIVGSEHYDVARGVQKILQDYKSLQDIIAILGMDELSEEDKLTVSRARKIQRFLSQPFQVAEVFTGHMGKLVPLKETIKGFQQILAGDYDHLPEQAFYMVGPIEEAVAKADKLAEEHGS
Chain of mitochondrial ATP synthase (DNP-stimulated Mg2+-ATPase), rat heart mitochondria (P15999 44-553): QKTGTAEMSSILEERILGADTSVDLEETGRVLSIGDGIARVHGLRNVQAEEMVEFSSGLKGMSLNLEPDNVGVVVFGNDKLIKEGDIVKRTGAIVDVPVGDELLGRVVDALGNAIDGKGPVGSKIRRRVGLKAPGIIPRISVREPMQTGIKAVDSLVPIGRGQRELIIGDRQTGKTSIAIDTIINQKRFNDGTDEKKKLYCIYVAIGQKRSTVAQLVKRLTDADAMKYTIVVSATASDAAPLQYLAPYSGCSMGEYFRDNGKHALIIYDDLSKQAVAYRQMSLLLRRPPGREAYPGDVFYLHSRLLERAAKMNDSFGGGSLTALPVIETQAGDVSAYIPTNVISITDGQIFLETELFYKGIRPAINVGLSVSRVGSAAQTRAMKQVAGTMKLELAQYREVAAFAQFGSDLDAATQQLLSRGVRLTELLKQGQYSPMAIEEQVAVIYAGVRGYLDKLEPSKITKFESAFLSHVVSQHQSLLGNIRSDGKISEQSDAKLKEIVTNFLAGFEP
Chain of mitochondrial ATP synthase (DNP-stimulated Mg2+-ATPase), rat heart mitochondria (P35435 whole entry partner): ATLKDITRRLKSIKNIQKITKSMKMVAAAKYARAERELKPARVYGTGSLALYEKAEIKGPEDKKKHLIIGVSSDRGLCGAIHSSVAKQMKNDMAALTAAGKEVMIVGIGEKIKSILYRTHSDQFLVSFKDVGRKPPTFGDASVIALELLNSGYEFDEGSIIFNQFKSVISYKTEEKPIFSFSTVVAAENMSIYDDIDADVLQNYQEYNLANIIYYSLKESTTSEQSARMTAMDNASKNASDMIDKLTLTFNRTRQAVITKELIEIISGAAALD
Chain of mitochondrial ATP synthase (DNP-stimulated Mg2+-ATPase), rat heart mitochondria (P35434 23-168 partner): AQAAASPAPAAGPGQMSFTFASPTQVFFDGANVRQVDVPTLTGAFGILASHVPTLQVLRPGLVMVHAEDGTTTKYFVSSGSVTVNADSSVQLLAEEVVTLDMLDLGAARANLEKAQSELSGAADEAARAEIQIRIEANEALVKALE
Chain of mitochondrial ATP synthase (DNP-stimulated Mg2+-ATPase), rat heart mitochondria (P29418 2-51 partner): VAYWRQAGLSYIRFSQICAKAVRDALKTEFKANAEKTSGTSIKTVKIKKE
Chain of mitochondrial ATP synthase (DNP-stimulated Mg2+-ATPase), rat heart mitochondria (Q06647 24-213 partner): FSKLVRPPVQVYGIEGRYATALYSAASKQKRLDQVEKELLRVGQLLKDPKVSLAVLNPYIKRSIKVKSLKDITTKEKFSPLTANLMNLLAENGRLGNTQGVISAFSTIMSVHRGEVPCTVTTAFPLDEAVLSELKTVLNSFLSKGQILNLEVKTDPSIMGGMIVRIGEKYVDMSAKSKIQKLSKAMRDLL

Row | inhibition at 450 µM (read-out: % inhibition at 0.45 mmol/l) [%] | inhibition at 15 µM (read-out: % inhibition at 0.015 mmol/l) [%] | SMILES
1 | 97.4 |  | C[C@H](CS)C(=O)N1CCC[C@H]1C(=O)O [captopril]
2 |  | 33 | COC(=O)C1=C(C)NC(C)=C(C(=O)OC)C1c1ccccc1[N+](=O)[O-] [nifedipine]
